Laboratory results taken from PMC3783749 (Indian Journal of Pharmaceutical Sciences, 2013).
≈ marks a conversion by molar mass, not a printed value.

Experiments:
[1] = system: Candida tropicalis (ATCC 1369); experiment: Antifungal MIC by broth dilution; type: cell-based; conditions: read-out: MIC values, Ct
[2] = system: Klebsiella pneumoniae ATCC 10031; experiment: MIC by broth microdilution method; type: cell-based; conditions: Gram-negative; 37°, 18 h

Row | Compound | MIC [1] [µg/mL] | MIC values, Kp [2] [µg/mL]
1 | Cc1ccc(C)n1-c1ccc(-c2nnc(-c3cccc([N+](=O)[O-])c3)[nH]2)cc1 [Compound 4e, 3-(4-(2,5-Dimethyl-1H-pyrrol-1-yl)phenyl)-5-(3-nitrophenyl)-4H-1,2,4-triazole] | 31.2 (≈ 87 µM) | –
2 | Cc1ccc(C)n1-c1ccc(-c2nnc(-c3ccccc3[N+](=O)[O-])[nH]2)cc1 [Compound 4f, 3-(4-(2,5-Dimethyl-1H-pyrrol-1-yl)phenyl)-5-(2-nitrophenyl)-4H-1,2,4-triazole] | 31.2 (≈ 87 µM) | –
3 | Cc1ccc(C)n1-c1ccc(-c2nnc(-c3ccc(O)cc3)[nH]2)cc1 [Compound 4g, 4-(5-(4-(2,5-Dimethyl-1H-pyrrol-1-yl)phenyl)-4H-1,2,4-triazol-3-yl) phenol] | 31.2 (≈ 94.6 µM) | –
4 | Cc1ccc(C)n1-c1ccc(C(=O)NNC=O)cc1 [Compound 5, 4-(2,5-dimethyl-1H-pyrrol-1-yl)-N’-formylbenzohydrazide] | – | 31.25 (≈ 121 µM)
